From paper PMC12150326 (The Journal of Organic Chemistry, 2025)
Like-named read-outs stand apart in the source and are kept apart here.

Columns and labels:
SR = type: cell-based, human
Protocol: (§1) (aR)-6, (aS)-6, (aS)-iso -6, and (aR)-iso -6 were submitted to the 60 Cell Screen panel and evaluated at 5 doses (100 μM, 10 μM, 1 μM, 0.1 μM, and 0.01 μM). […] The complete report from this submission is available at the publisher’s Web site as a separate Supporting Information file. For COMPARE analysis, TGI levels of response for (aR)-DM-MTC (6) and (aS)-iso-DM-MTC were compared to those of several established tubulin inhibitors previously tested in the NCI-60 screen.

ACHN = type: cell-based, human
Protocol: as §1

HCC-2998 = type: cell-based, human
Protocol: as §1

T-47D = type: cell-based, human
Protocol: as §1

MDA-MB-468 = type: cell-based, human
Protocol: as §1

MCF7 = type: cell-based, human
Protocol: as §1

NCI 60 cell lines = type: cell-based, human; settings: for cytotoxicity at the highest concentration tested: 100 μM; for Log10 Range at TGI: NCI-60 cell line selectivity; for Mean TGI: NCI-60 mean total growth inhibition; for GI50: NCI-60 mean; for _MID Log10GI50 / _MID Log10LC50 / _MID Log10TGI: mean graph midpoint
Protocol: as §1

MALME-3M = type: cell-based, human
Protocol: as §1

SK-MEL-5 = type: cell-based, human
Protocol: as §1

HOP-92 = type: cell-based, human
Protocol: as §1

NCI-H460 = type: cell-based, human
Protocol: as §1

SK-OV-3 = type: cell-based, human
Protocol: as §1

TK-10 = type: cell-based, human
Protocol: as §1

786-0 = type: cell-based, human
Protocol: as §1

SNB-19 = type: cell-based, human
Protocol: as §1

BT-549 = type: cell-based, human
Protocol: as §1

A549/ATCC = type: cell-based, human
Protocol: as §1

A498 = type: cell-based, human
Protocol: as §1

SF-539 = type: cell-based, human
Protocol: as §1

CCRF-CEM = type: cell-based, human
Protocol: as §1

SF-295 = type: cell-based, human
Protocol: as §1

SNB-75 = type: cell-based, human
Protocol: as §1

UO-31 = type: cell-based, human
Protocol: as §1

bovine brain tubulin = assay: Tubulin polymerization inhibition; type: biochemical; settings: 10 μM tubulin; for Polymerization Inhibition (%) 3.3 μM: 3.3 μM compound; for Polymerization Inhibition (%) 33 μM: 33 μM compound
Protocol: Inhibition of tubulin polymerization was determined as described previously. In brief, 10 μM bovine brain tubulin (PurSolutions, LLC (puresoluble.com)) was incubated under conditions strongly promoting polymerization of tubulin (1 M NaGlutamate, 0.1 M Mes (Morpholinoethanesulfonic acid), 1 mM MgCl2, 0.5 mM GTP, pH 6.9), in the absence or presence of 3.3 or 33 μM test compound, incubated for 30 min at 37 °C, then centrifuged at 100,000g for 8 min, and the top 3/4 of the supernatant removed. Protein concentration was measured, and polymerization was determined as pelletable protein lost from the supernatant.

Compound: COc1cc(C)c(-c2ccc(OC)c(=O)cc2C)c(OC)c1OC (single isomer, unassigned) [(aS)-6]
- Log10GI50 (SR): > -4.00 Molar
- Log10LC50 (SR): > -4.00 Molar
- Log10TGI (SR): > -4.00 Molar
- Log10GI50 (ACHN): > -4.00 Molar
- Log10LC50 (ACHN): > -4.00 Molar
- Log10TGI (ACHN): > -4.00 Molar
- Log10GI50 (HCC-2998): > -4.00 Molar
- Log10LC50 (HCC-2998): > -4.00 Molar
- Log10TGI (HCC-2998): > -4.00 Molar
- Log10GI50 (T-47D): > -4.00 Molar
- Log10LC50 (T-47D): > -4.00 Molar
- Log10TGI (T-47D): > -4.00 Molar
- Log10GI50 (MDA-MB-468): -4.20 Molar
- Log10LC50 (MDA-MB-468): > -4.00 Molar
- Log10TGI (MDA-MB-468): > -4.00 Molar
- Log10GI50 (MCF7): > -4.00 Molar
- Log10LC50 (MCF7): > -4.00 Molar
- Log10TGI (MCF7): > -4.00 Molar
- cytotoxicity at the highest concentration tested (NCI 60 cell lines): not cytotoxic
- Log10 Range at TGI (NCI 60 cell lines; listed as (aS)-DM-MTC (6)): 0
- Mean TGI (NCI 60 cell lines; listed as (aS)-DM-MTC (6)): > 100 µM
- GI50 (NCI 60 cell lines; listed as (aS)-DM-MTC (6)): > 100 µM
- Delta Log10GI50 (NCI 60 cell lines; mean graph): 0.63
- Delta Log10LC50 (NCI 60 cell lines; mean graph): 0
- Delta Log10TGI (NCI 60 cell lines; mean graph): 0
- Range Log10GI50 (NCI 60 cell lines; mean graph): 0.65
- Range Log10LC50 (NCI 60 cell lines; mean graph): 0.0
- Range Log10TGI (NCI 60 cell lines; mean graph): 0.0
- _MID Log10GI50 (NCI 60 cell lines): -4.02 Molar
- _MID Log10LC50 (NCI 60 cell lines): -4.0 Molar
- _MID Log10TGI (NCI 60 cell lines): -4.0 Molar
- Log10GI50 (MALME-3M): > -4.00 Molar
- Log10LC50 (MALME-3M): > -4.00 Molar
- Log10TGI (MALME-3M): > -4.00 Molar
- Log10GI50 (SK-MEL-5): > -4.00 Molar
- Log10LC50 (SK-MEL-5): > -4.00 Molar
- Log10TGI (SK-MEL-5): > -4.00 Molar
- Log10GI50 (HOP-92): -4.65 Molar
- Log10LC50 (HOP-92): > -4.00 Molar
- Log10TGI (HOP-92): > -4.00 Molar
- Log10GI50 (NCI-H460): > -4.00 Molar
- Log10LC50 (NCI-H460): > -4.00 Molar
- Log10TGI (NCI-H460): > -4.00 Molar
- Log10GI50 (SK-OV-3): > -4.00 Molar
- Log10LC50 (SK-OV-3): > -4.00 Molar
- Log10TGI (SK-OV-3): > -4.00 Molar
- Log10GI50 (TK-10): > -4.00 Molar
- Log10LC50 (TK-10): > -4.00 Molar
- Log10TGI (TK-10): > -4.00 Molar
- Log10GI50 (786-0): > -4.00 Molar
- Log10LC50 (786-0): > -4.00 Molar
- Log10TGI (786-0): > -4.00 Molar
- Log10GI50 (SNB-19): > -4.00 Molar
- Log10LC50 (SNB-19): > -4.00 Molar
- Log10TGI (SNB-19): > -4.00 Molar
- Log10GI50 (BT-549): > -4.00 Molar
- Log10LC50 (BT-549): > -4.00 Molar
- Log10TGI (BT-549): > -4.00 Molar
- Log10GI50 (A549/ATCC): > -4.00 Molar
- Log10LC50 (A549/ATCC): > -4.00 Molar
- Log10TGI (A549/ATCC): > -4.00 Molar
- Log10GI50 (A498): > -4.00 Molar
- Log10LC50 (A498): > -4.00 Molar
- Log10TGI (A498): > -4.00 Molar
- Log10GI50 (SF-539): > -4.00 Molar
- Log10LC50 (SF-539): > -4.00 Molar
- Log10TGI (SF-539): > -4.00 Molar
- Log10GI50 (CCRF-CEM): > -4.00 Molar
- Log10LC50 (CCRF-CEM): > -4.00 Molar
- Log10TGI (CCRF-CEM): > -4.00 Molar
- Log10GI50 (SF-295): > -4.00 Molar
- Log10LC50 (SF-295): > -4.00 Molar
- Log10TGI (SF-295): > -4.00 Molar
- Log10GI50 (SNB-75): > -4.00 Molar
- Log10LC50 (SNB-75): > -4.00 Molar
- Log10TGI (SNB-75): > -4.00 Molar
- Log10GI50 (UO-31): > -4.00 Molar
- Log10LC50 (UO-31): > -4.00 Molar
- Log10TGI (UO-31): > -4.00 Molar
- Polymerization Inhibition (%) 3.3 μM (bovine brain tubulin): 0%
- Polymerization Inhibition (%) 33 μM (bovine brain tubulin): 0%

Compound: COc1cc(C)c(-c2ccc(=O)c(OC)cc2C)c(OC)c1OC (single isomer, unassigned) [(aR)-iso-6]
- Log10GI50 (SR): > -4.00 Molar
- Log10LC50 (SR): > -4.00 Molar
- Log10TGI (SR): > -4.00 Molar
- Log10GI50 (ACHN): > -4.00 Molar
- Log10LC50 (ACHN): > -4.00 Molar
- Log10TGI (ACHN): > -4.00 Molar
- Log10GI50 (HCC-2998): > -4.00 Molar
- Log10LC50 (HCC-2998): > -4.00 Molar
- Log10TGI (HCC-2998): > -4.00 Molar
- Log10GI50 (T-47D): > -4.00 Molar
- Log10LC50 (T-47D): > -4.00 Molar
- Log10TGI (T-47D): > -4.00 Molar
- Log10GI50 (MDA-MB-468): > -4.00 Molar
- Log10LC50 (MDA-MB-468): > -4.00 Molar
- Log10TGI (MDA-MB-468): > -4.00 Molar
- Log10GI50 (MCF7): > -4.00 Molar
- Log10LC50 (MCF7): > -4.00 Molar
- Log10TGI (MCF7): > -4.00 Molar
- cytotoxicity at the highest concentration tested (NCI 60 cell lines): not cytotoxic
- Log10 Range at TGI (NCI 60 cell lines): 0
- GI50 (NCI 60 cell lines): > 100 µM
- Mean TGI (NCI 60 cell lines): > 100 µM
- Delta Log10LC50 (NCI 60 cell lines; mean graph): 0
- Delta Log10TGI (NCI 60 cell lines; mean graph): 0
- _MID Log10GI50 (NCI 60 cell lines): -4.01 Molar
- _MID Log10LC50 (NCI 60 cell lines): -4.0 Molar
- _MID Log10TGI (NCI 60 cell lines): -4.0 Molar
- Log10GI50 (MALME-3M): > -4.00 Molar
- Log10LC50 (MALME-3M): > -4.00 Molar
- Log10TGI (MALME-3M): > -4.00 Molar
- Log10GI50 (SK-MEL-5): > -4.00 Molar
- Log10LC50 (SK-MEL-5): > -4.00 Molar
- Log10TGI (SK-MEL-5): > -4.00 Molar
- Log10GI50 (HOP-92): > -4.00 Molar
- Log10LC50 (HOP-92): > -4.00 Molar
- Log10TGI (HOP-92): > -4.00 Molar
- Log10GI50 (NCI-H460): > -4.00 Molar
- Log10LC50 (NCI-H460): > -4.00 Molar
- Log10TGI (NCI-H460): > -4.00 Molar
- Log10GI50 (SK-OV-3): > -4.00 Molar
- Log10LC50 (SK-OV-3): > -4.00 Molar
- Log10TGI (SK-OV-3): > -4.00 Molar
- Log10GI50 (TK-10): > -4.00 Molar
- Log10LC50 (TK-10): > -4.00 Molar
- Log10TGI (TK-10): > -4.00 Molar
- Log10GI50 (786-0): > -4.00 Molar
- Log10LC50 (786-0): > -4.00 Molar
- Log10TGI (786-0): > -4.00 Molar
- Log10GI50 (SNB-19): > -4.00 Molar
- Log10LC50 (SNB-19): > -4.00 Molar
- Log10TGI (SNB-19): > -4.00 Molar
- Log10GI50 (BT-549): > -4.00 Molar
- Log10LC50 (BT-549): > -4.00 Molar
- Log10TGI (BT-549): > -4.00 Molar
- Log10GI50 (A549/ATCC): > -4.00 Molar
- Log10LC50 (A549/ATCC): > -4.00 Molar
- Log10TGI (A549/ATCC): > -4.00 Molar
- Log10GI50 (A498): > -4.00 Molar
- Log10LC50 (A498): > -4.00 Molar
- Log10TGI (A498): > -4.00 Molar
- Log10GI50 (SF-539): > -4.00 Molar
- Log10LC50 (SF-539): > -4.00 Molar
- Log10TGI (SF-539): > -4.00 Molar
- Log10GI50 (CCRF-CEM): > -4.00 Molar
- Log10LC50 (CCRF-CEM): > -4.00 Molar
- Log10TGI (CCRF-CEM): > -4.00 Molar
- Log10GI50 (SF-295): > -4.00 Molar
- Log10LC50 (SF-295): > -4.00 Molar
- Log10TGI (SF-295): > -4.00 Molar
- Log10GI50 (SNB-75): -4.40 Molar
- Log10LC50 (SNB-75): > -4.00 Molar
- Log10TGI (SNB-75): > -4.00 Molar
- Log10GI50 (UO-31): > -4.00 Molar
- Log10LC50 (UO-31): > -4.00 Molar
- Log10TGI (UO-31): > -4.00 Molar
- Polymerization Inhibition (%) 3.3 μM (bovine brain tubulin): 0%
- Polymerization Inhibition (%) 33 μM (bovine brain tubulin): 0%
